According to patent US20210386367A1, “DEVICES AND SYSTEMS FOR GASTROINTESTINAL MICROBIOME DETECTION AND MANIPULATION” (Progenity, Inc., priority 2018, published 2021):
Values after ≈ are worked out from the molar mass of the structure shown. “Also recorded” adds a separate entry of the source. Where two headings read alike, the source gives them in different places.

What was measured:
[1] = system: E. coli ATCC 35218; assay: Time-kill assay; format: cell-based, Escherichia coli; conditions: 2×, 4×, 8× MIC; 2, 6, 24 hr
[2] = system: Prevotella spp.; assay: Agar dilution MIC, 30 clinical isolates; format: cell-based
[3] = system: S. pneumoniae ATCC 49619; assay: Broth microdilution MIC (time-kill study); format: cell-based, Streptococcus pneumoniae
[4] = system: E. coli spontaneous mutants; assay: Broth microdilution MIC of spontaneous mutants; format: cell-based, Escherichia coli; conditions: for MIC: Escherichia coli
How it was run: (§1)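 Spontaneous mutants from drug selection plates were tested by CLSI broth microdilution in MHB II with two-fold serial drug dilutions. Inoculum was about 5×10^5 CFU/mL, incubated aerobically at 35° C. for 18-20 hr. MIC was the lowest concentration inhibiting visible growth.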

[5] = system: Streptococcus spp. spontaneous mutants; assay: organism not typed; format: cell-based
How it was run: as §1

[6] = system: Veillonella spp. clinical isolates; assay: MIC distribution against clinical isolates; format: cell-based; conditions: 30 Veillonella spp. isolates
From the text: (n=19 V. parvula, n=9 Veillonella spp., n=1 Veillonella dispr., n=1 V. atypica) clinical isolates (μg/mL).
As used herein, “minimum inhibitory concentration” or “MIC” refers to the lowest concentration of an antimicrobial agent, for example, an antimicrobial agent as described herein, required to inhibit the growth of an organism. […] “MIC90” represents the MIC value at which ≥90% of the strains within a test population are inhibited; the 90th percentile.
Many susceptibility testing methods are known in the art and can be used as described herein (see, e.g., Jorgensen and Ferraro (2009) Clinical Infectious Diseases 49:1749-1755; and Maurer et al. (2017) Infectious Disease Reports 9:6839; the entire contents of each of the foregoing are incorporated herein by reference). For example, antimicrobial susceptibility can be determined using conventional culture based methods such as the broth or agar dilution test. In these dilution tests, the bacterial isolate of interest is inoculated onto different media that include serial dilutions of an antimicrobial agent, and incubated under appropriate conditions (e.g., overnight at 37° C.) to allow for growth to occur. Following the incubation period, the media is examined to determine bacterial growth. The lowest concentration of antibiotic that prevents growth represents the minimal inhibitory concentration (MIC). Broth dilution tests can be miniaturized and mechanized allowing for reproducibility and high throughput.

[7] = system: E. coli ATCC 25922; assay: Time-kill assay; format: cell-based, Escherichia coli; conditions: 2×, 4×, 8× MIC; 2, 6, 24 hr
[8] = system: S. agalactiae; assay: Spontaneous mutation frequency and mutation prevention concentration (MPC); format: cell-based; conditions: S. agalactiae ATCC 13813
From the text: As used herein, “spontaneous mutation frequency” refers to the rate at which mutations arise in a bacterium that can lead to resistance to develop to an antimicrobial agent. “Mutation prevention concentration” or “MPC” refers to the lowest concentration of antimicrobial agent above which the selective proliferation of resistant mutants is expected to occur only rarely.

[9] = 30 Prevotella spp. clinical isolates

## C[C@@H](O)[C@H]1C(=O)N2C(C(=O)O)=C(S[C@@H]3CN[C@H](C(=O)N(C)C)C3)[C@H](C)[C@H]12 [meropenem]
[1]
  time-kill kinetics outcome (bactericidal = ≥3 log reduction in CFU per mL): rapid killing and bactericidal activity at the two higher concentrations at 24 hr
[2]
  MIC range: ≤0.008 to 0.3 µg/mL
  isolates susceptible: All were susceptible
  relative activity among drugs tested: most active drug tested; also recorded: most active agent
[2]; [9]
  % S: 100%
  MIC50: 0.06 µg/mL (≈ 0.156 µM)
  MIC90: 0.12 µg/mL (≈ 0.313 µM)
  MIC range: ≤0.008 to 0.3 µg/mL
[2]; Prevotella, read-out: MIC50
  MIC50: 0.06 µg/mL (≈ 0.156 µM)
[2]; Prevotella, read-out: MIC90
  MIC90: 0.12 µg/mL (≈ 0.313 µM)
[2]; modal MIC, 30 Prevotella spp. clinical isolates
  Mode: 0.06 µg/mL
[3]; S. pneumoniae ATCC 49619
  MIC: 0.06 µg/mL (≈ 0.156 µM)
[3]; Streptococcus pneumoniae, ATCC49619, broth microdilution, read-out: MIC
  MIC: 0.06 µg/mL (≈ 0.156 µM)
[4]; ATCC25922, E. coli ATCC 25922, selected on rifaximin 4X MIC, Colony A
  MIC: 0.008 µg/mL
[4]; ATCC25922, E. coli ATCC 25922, selected on rifaximin 4X MIC, Colony B
  MIC: 0.008 µg/mL
[4]; ATCC25922, E. coli ATCC 25922, selected on rifaximin 8X MIC, Colony A
  MIC: 0.008 µg/mL
[4]; ATCC25922, E. coli ATCC 25922 Parent (Table 52)
  MIC: 0.03 µg/mL
[4]; ATCC35218, E. coli ATCC 35218, selected on rifaximin 4X MIC, Colony A
  MIC: 0.015 µg/mL
[4]; ATCC35218, E. coli ATCC 35218, selected on rifaximin 4X MIC, Colony B
  MIC: 0.015 µg/mL
[4]; ATCC35218, E. coli ATCC 35218, selected on rifaximin 8X MIC, Colony A
  MIC: 0.015 µg/mL
[4]; ATCC35218, E. coli ATCC 35218, selected on rifaximin 8X MIC, Colony B
  MIC: 0.015 µg/mL
[4]; ATCC35218, E. coli ATCC 35218 Parent (Table 52)
  MIC: 0.015 µg/mL
[4]; E. coli MMX 1312, selected on ceftriaxone 4X MIC, Colony A
  MIC: 0.015 µg/mL
[4]; E. coli MMX 1312, selected on ceftriaxone 4X MIC, Colony B
  MIC: 0.015 µg/mL
[4]; E. coli MMX 1312, selected on ceftriaxone 4X MIC, Colony C
  MIC: 0.03 µg/mL
[4]; E. coli MMX 1312, selected on ceftriaxone 8X MIC, Colony A
  MIC: 0.015 µg/mL
[4]; E. coli MMX 1312, selected on ceftriaxone 8X MIC, Colony B
  MIC: 0.03 µg/mL
[4]; E. coli MMX 1312, selected on ceftriaxone 8X MIC, Colony C
  MIC: 0.03 µg/mL
[4]; E. coli MMX 1312, selected on rifaximin 4X MIC, Colony A
  MIC: 0.008 µg/mL
[4]; E. coli MMX 1312, selected on rifaximin 4X MIC, Colony B
  MIC: 0.008 µg/mL
[4]; E. coli MMX 1312, selected on rifaximin 8X MIC, Colony A
  MIC: 0.015 µg/mL
[4]; E. coli MMX 1312, selected on rifaximin 8X MIC, Colony B
  MIC: 0.015 µg/mL
[4]; E. coli MMX 1312 Parent
  MIC: 0.015 µg/mL
[4]; E. coli MMX 1312 Parent (Table 49)
  MIC: 0.015 µg/mL
[4]; E. coli MMX 1312 Parent (Table 52)
  MIC: 0.015 µg/mL
[4]; E. coli MMX 1312 mutant selected on meropenem 4X MIC, colony A
  MIC: 0.015 µg/mL
[4]; E. coli MMX 1312 mutant selected on meropenem 4X MIC, colony B
  MIC: 0.015 µg/mL
[4]; E. coli MMX 1312 mutant selected on meropenem 4X MIC, colony C
  MIC: 0.015 µg/mL
[4]; E. coli MMX 1312 mutant selected on meropenem 8X MIC, colony A
  MIC: 0.015 µg/mL
[4]; E. coli MMX 1312 mutant selected on meropenem 8X MIC, colony B
  MIC: 0.015 µg/mL
[4]; E. coli MMX 1312 mutant selected on meropenem 8X MIC, colony C
  MIC: 0.015 µg/mL
[4]; colonies selected at 4× and 8× the MIC
  broth microdilution MIC of selected colonies relative to parent strain: consistent with that of the parent strain
[5]; S. pneumoniae ATCC 49619, selected on rifaximin 4X MIC, Colony A
  MIC: 0.03 µg/mL (≈ 0.0782 µM)
[5]; S. pneumoniae ATCC 49619, selected on rifaximin 4X MIC, Colony B
  MIC: 0.03 µg/mL (≈ 0.0782 µM)
[5]; S. pneumoniae ATCC 49619, selected on rifaximin 8X MIC, Colony A
  MIC: 0.03 µg/mL (≈ 0.0782 µM)
[5]; S. pneumoniae ATCC 49619, selected on rifaximin 8X MIC, Colony B
  MIC: 0.03 µg/mL (≈ 0.0782 µM)
[5]; S. pneumoniae ATCC 49619 Parent
  MIC: 0.03 µg/mL (≈ 0.0782 µM)
[5]; S. pyogenes ATCC 49399, selected on rifaximin 4X MIC, Colony A
  MIC: 0.002 µg/mL (≈ 0.00522 µM)
[5]; S. pyogenes ATCC 49399, selected on rifaximin 4X MIC, Colony B
  MIC: 0.004 µg/mL (≈ 0.0104 µM)
[5]; S. pyogenes ATCC 49399, selected on rifaximin 8X MIC, Colony A
  MIC: 0.004 µg/mL (≈ 0.0104 µM)
[5]; S. pyogenes ATCC 49399, selected on rifaximin 8X MIC, Colony B
  MIC: 0.004 µg/mL (≈ 0.0104 µM)
[5]; S. pyogenes ATCC 49399 Parent
  MIC: 0.004 µg/mL (≈ 0.0104 µM)
[5]; Streptococcus, ATCC13813, S. agaloctiae ATCC 13813, selected on rifaximin 4X MIC, Colony A
  MIC: 0.015 µg/mL (≈ 0.0391 µM)
[5]; Streptococcus, ATCC13813, S. agaloctiae ATCC 13813, selected on rifaximin 4X MIC, Colony B
  MIC: 0.015 µg/mL (≈ 0.0391 µM)
[5]; Streptococcus, ATCC13813, S. agaloctiae ATCC 13813, selected on rifaximin 8X MIC, Colony A
  MIC: 0.015 µg/mL (≈ 0.0391 µM)
[5]; Streptococcus, ATCC13813, S. agaloctiae ATCC 13813, selected on rifaximin 8X MIC, Colony B
  MIC: 0.03 µg/mL (≈ 0.0782 µM)
[5]; Streptococcus, ATCC13813, S. agaloctiae ATCC 13813 Parent
  MIC: 0.008 µg/mL (≈ 0.0209 µM)
[6]; MIC 0.5 μg/mL
  Cumulative percentage of isolates inhibited at MIC: 43.3%
  Number of test isolates at MIC: 2
[6]; MIC 1 μg/mL
  Cumulative percentage of isolates inhibited at MIC: 53.3%
  Number of test isolates at MIC: 3
[6]; MIC 2 μg/mL
  Cumulative percentage of isolates inhibited at MIC: 70.0%
  Number of test isolates at MIC: 5
[6]; MIC 4 μg/mL
  Cumulative percentage of isolates inhibited at MIC: 76.7%
  Number of test isolates at MIC: 2
[6]; MIC 8 μg/mL
  Cumulative percentage of isolates inhibited at MIC: 100.0%
  Number of test isolates at MIC: 7
[7]
  time-kill kinetics outcome (bactericidal = ≥3 log reduction in CFU per mL): rapid killing and bactericidal activity at the two higher concentrations at 24 hr
[8]
  MPC: 0.12 µg/mL
